ChEMBL document CHEMBL1201862, “PubChem BioAssay data set” (2004)
Values belong to the compound of their own block, whether it stands above or below them. Active and inactive are the calls of the source.

Key:
[1] = target: Vascular endothelial growth factor receptor 2 (Homo sapiens, UniProt P35968); format: functional
[2] = target: Dual specificity protein kinase CLK2 (Homo sapiens, UniProt P49760); format: functional
[3] = target: Mitogen-activated protein kinase kinase kinase kinase 2 (Homo sapiens, UniProt Q12851); format: functional;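 also: measured as one member of a kinome-wide kinase panel, with MAP4K2 as the panel entry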
[4] = target: Serine/threonine-protein kinase D3 (Homo sapiens, UniProt O94806); format: functional;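 also: determined within a kinase panel screen, with PRKCN as the panel member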
[5] = target: Tyrosine-protein kinase BTK (Homo sapiens, UniProt Q06187); format: functional
[6] = target: Tyrosine-protein kinase JAK3 (Homo sapiens, UniProt P52333); format: functional
[7] = target: ALK tyrosine kinase receptor (Homo sapiens, UniProt Q9UM73); format: functional;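 also: ALK tested as one member of a kinase panel screen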
[8] = target: Leukocyte tyrosine kinase receptor (Homo sapiens, UniProt P29376); experiment: Navigating the Kinome. Panel member name: LTK; format: functional
[9] = target: 5'-AMP-activated protein kinase catalytic subunit alpha-1 (Homo sapiens, UniProt Q13131); format: functional
[10] = target: Dual specificity tyrosine-phosphorylation-regulated kinase 1B (Homo sapiens, UniProt Q9Y463); experiment: Navigating the Kinome. Panel member name: DYRK1B; format: functional
[11] = target: Vascular endothelial growth factor receptor 1 (Homo sapiens, UniProt P17948); format: functional;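 also: measured within a kinome-wide profiling panel, FLT1 as the panel member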
[12] = target: Aurora kinase A (Homo sapiens, UniProt O14965); format: functional;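 also: value from the Navigating the Kinome kinase panel profiling, panel entry STK6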
[13] = target: Leucine-rich repeat serine/threonine-protein kinase 2 (Homo sapiens, UniProt Q5S007); format: functional;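 also: value from a broad kinome-wide panel profiling study in which LRRK2 was one of the kinases tested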
[14] = target: Dual specificity mitogen-activated protein kinase kinase 2 (Homo sapiens, UniProt P36507); experiment: Navigating the Kinome. Panel member name: MAP2K2; format: functional
[15] = target: Dual specificity tyrosine-phosphorylation-regulated kinase 1A (Homo sapiens, UniProt Q13627); format: functional;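 also: measured against DYRK1A as one member of a broad kinome profiling panel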
[16] = target: Death-associated protein kinase 3 (Homo sapiens, UniProt O43293); format: functional;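 also: measured as one member of a kinome-wide profiling panel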
[17] = target: Serine/threonine-protein kinase TAO1 (Homo sapiens, UniProt Q7L7X3); format: functional
[18] = target: Mitogen-activated protein kinase 9 (Homo sapiens, UniProt P45984); format: functional;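 also: value from a kinome panel profiling assay, MAPK9 panel entry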
[19] = target: Calcium/calmodulin-dependent protein kinase type II subunit alpha (Homo sapiens, UniProt Q9UQM7); experiment: Navigating the Kinome. Panel member name: CAMK2A; format: functional
[20] = test system: Streptococcus sp. 'group A'; experiment: Streptococcus pyogenes SK(-)GAS viability under kanamycin – luminescence, BacTiterGlo, confirmation, counter-screen for streptokinase expression inhibitor project, dose response (AID 1900); format: functional, organism-based
[21] = NIH-3T3 fibroblast cytotoxicity, dose response, cytotoxicity control, cell-based, fluorescence, Alamar Blue, secondary assay (AID 2327); format: functional;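 also: NIH-3T3 mouse fibroblasts cultured with fluconazole at 8 µg/mL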
[22] = target: T1, Caspase-3 (Homo sapiens, UniProt P42574); format: functional;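 also: Dose-response selectivity test against caspase-3 for candidate inhibitors of sentrin-specific proteases (SENPs)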
T1 sequence (P42574 whole entry): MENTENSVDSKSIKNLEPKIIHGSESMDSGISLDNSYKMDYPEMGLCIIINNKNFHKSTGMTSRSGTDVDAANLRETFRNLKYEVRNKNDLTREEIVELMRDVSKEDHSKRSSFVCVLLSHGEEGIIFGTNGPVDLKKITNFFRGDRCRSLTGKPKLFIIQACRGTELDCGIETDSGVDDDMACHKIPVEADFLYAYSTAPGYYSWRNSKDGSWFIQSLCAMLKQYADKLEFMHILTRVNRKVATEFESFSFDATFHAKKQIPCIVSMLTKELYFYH

[23] = target: T2, Histone-lysine N-methyltransferase NSD2 (Homo sapiens, UniProt O96028); format: biochemical
T2 sequence (O96028 whole entry): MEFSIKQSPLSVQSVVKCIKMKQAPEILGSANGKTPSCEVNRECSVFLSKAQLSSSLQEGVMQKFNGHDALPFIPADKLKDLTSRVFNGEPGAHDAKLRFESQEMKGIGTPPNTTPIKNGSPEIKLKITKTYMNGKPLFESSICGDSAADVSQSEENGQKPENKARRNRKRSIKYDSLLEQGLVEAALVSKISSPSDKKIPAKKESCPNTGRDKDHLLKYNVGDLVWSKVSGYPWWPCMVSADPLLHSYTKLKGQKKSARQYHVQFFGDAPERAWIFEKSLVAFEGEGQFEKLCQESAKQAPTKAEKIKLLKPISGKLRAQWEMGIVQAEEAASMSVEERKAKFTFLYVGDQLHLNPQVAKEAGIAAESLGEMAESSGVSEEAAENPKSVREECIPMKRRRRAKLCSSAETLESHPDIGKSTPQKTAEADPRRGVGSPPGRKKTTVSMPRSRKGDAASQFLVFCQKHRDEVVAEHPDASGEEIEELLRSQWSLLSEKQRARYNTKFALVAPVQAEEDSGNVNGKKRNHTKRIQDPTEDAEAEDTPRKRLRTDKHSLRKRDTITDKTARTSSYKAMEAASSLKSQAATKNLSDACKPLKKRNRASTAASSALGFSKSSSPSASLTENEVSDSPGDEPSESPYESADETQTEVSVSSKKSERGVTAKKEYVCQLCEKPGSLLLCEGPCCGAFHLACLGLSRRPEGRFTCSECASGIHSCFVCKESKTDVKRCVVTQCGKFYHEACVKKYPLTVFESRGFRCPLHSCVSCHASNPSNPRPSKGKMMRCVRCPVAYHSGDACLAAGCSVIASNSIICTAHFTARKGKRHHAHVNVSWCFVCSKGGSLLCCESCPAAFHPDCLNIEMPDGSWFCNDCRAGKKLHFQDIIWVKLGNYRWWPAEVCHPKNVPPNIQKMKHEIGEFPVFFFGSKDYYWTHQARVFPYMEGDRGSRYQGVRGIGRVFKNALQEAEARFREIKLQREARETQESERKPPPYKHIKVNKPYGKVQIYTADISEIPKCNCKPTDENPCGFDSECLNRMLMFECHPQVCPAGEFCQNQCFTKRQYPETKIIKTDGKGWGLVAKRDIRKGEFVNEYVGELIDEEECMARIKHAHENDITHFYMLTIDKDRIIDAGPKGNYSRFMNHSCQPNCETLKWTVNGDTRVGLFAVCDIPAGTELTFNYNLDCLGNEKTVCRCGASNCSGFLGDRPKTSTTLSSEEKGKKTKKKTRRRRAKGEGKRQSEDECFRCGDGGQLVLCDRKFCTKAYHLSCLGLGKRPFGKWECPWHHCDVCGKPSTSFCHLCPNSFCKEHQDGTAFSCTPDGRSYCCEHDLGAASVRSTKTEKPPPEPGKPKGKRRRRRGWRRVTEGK

Sequence of 5'-AMP-activated protein kinase catalytic subunit alpha-1 (Q13131 whole entry): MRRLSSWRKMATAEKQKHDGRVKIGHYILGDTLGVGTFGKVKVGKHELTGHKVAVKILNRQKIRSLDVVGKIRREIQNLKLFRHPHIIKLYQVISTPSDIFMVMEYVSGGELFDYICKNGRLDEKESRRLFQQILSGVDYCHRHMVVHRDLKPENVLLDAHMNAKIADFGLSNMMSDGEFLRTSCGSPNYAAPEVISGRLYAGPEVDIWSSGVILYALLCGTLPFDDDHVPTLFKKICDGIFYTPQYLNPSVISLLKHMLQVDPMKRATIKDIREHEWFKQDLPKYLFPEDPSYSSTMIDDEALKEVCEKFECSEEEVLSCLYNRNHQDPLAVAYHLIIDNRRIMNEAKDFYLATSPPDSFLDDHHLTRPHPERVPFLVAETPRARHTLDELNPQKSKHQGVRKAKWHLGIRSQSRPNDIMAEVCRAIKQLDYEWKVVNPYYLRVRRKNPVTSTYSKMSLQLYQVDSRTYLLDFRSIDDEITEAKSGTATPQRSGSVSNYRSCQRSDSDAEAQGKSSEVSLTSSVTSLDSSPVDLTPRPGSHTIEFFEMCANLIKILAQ
Sequence of Tyrosine-protein kinase BTK (Q06187 whole entry): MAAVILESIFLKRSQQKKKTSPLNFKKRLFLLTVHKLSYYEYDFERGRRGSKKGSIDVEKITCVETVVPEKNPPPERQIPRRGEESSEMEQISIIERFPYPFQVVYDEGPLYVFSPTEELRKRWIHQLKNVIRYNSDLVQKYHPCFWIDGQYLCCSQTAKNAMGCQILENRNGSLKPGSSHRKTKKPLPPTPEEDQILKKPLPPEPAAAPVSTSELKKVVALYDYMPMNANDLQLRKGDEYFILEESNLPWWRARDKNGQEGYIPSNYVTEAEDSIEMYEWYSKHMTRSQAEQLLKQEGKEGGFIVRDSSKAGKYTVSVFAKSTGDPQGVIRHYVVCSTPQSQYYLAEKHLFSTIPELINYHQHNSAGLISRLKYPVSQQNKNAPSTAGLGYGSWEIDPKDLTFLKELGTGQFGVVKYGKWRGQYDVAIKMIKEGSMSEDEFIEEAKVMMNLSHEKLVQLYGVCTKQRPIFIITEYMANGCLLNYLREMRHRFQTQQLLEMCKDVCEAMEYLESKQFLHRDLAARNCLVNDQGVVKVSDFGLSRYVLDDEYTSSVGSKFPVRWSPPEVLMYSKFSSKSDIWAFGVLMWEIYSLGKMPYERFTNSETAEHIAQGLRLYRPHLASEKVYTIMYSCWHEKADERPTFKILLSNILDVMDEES
Sequence of Dual specificity mitogen-activated protein kinase kinase 2 (P36507 whole entry): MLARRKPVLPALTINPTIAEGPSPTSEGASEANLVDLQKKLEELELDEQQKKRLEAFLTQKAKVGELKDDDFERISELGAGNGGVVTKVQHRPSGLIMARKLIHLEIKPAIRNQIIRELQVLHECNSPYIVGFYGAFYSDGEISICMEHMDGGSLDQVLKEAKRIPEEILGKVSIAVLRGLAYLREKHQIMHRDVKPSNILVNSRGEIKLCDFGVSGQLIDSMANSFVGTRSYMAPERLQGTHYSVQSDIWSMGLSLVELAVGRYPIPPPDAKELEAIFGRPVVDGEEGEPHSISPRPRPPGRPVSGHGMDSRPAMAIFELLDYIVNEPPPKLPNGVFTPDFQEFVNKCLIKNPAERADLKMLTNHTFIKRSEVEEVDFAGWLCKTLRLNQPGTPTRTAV
Sequence of Mitogen-activated protein kinase 9 (P45984 whole entry): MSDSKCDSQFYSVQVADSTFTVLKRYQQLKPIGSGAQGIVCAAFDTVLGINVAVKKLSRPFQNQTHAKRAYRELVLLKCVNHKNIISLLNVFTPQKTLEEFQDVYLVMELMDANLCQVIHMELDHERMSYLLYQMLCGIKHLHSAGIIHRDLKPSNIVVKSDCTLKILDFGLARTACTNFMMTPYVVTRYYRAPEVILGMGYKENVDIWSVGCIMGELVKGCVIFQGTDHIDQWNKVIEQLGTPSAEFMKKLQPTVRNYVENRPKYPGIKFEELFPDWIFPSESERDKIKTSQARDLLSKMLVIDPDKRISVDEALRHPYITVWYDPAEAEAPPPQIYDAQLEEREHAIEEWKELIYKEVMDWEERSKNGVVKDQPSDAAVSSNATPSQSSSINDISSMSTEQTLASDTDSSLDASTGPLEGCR
Sequence of Dual specificity protein kinase CLK2 (P49760 whole entry): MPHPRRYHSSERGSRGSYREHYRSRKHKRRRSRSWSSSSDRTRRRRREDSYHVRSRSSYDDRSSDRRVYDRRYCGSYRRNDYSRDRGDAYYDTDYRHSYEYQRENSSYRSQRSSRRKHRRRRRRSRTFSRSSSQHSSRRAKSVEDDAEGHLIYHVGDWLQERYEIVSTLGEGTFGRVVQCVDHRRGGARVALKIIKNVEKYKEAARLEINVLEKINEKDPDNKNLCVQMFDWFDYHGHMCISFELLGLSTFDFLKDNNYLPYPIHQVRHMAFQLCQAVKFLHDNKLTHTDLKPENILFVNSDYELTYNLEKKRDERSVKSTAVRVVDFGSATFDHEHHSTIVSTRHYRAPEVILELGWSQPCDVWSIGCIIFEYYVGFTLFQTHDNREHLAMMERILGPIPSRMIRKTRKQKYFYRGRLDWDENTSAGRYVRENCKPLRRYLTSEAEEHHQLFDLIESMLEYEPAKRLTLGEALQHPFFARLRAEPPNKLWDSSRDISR
Sequence of Mitogen-activated protein kinase kinase kinase kinase 2 (Q12851 whole entry): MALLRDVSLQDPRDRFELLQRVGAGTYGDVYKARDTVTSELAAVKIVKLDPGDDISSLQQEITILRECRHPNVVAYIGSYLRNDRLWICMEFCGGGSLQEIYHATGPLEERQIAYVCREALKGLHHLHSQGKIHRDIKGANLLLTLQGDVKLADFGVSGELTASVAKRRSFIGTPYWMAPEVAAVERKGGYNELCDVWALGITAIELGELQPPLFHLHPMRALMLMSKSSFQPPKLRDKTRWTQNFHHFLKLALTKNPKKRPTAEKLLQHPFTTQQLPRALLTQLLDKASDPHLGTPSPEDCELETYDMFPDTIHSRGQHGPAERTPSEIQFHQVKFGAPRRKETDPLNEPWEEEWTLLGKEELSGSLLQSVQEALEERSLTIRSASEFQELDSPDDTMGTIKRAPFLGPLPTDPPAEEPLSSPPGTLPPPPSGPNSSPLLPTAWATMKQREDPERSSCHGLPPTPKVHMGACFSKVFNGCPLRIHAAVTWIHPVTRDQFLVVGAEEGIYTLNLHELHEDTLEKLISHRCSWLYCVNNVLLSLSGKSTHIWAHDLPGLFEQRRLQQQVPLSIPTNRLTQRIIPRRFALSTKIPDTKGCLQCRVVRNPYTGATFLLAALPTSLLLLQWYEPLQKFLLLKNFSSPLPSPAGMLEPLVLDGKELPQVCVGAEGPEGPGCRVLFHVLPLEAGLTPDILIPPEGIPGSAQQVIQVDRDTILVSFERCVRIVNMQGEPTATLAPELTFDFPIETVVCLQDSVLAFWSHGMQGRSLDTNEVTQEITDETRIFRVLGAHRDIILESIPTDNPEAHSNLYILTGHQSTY
Sequence of Tyrosine-protein kinase JAK3 (P52333 whole entry): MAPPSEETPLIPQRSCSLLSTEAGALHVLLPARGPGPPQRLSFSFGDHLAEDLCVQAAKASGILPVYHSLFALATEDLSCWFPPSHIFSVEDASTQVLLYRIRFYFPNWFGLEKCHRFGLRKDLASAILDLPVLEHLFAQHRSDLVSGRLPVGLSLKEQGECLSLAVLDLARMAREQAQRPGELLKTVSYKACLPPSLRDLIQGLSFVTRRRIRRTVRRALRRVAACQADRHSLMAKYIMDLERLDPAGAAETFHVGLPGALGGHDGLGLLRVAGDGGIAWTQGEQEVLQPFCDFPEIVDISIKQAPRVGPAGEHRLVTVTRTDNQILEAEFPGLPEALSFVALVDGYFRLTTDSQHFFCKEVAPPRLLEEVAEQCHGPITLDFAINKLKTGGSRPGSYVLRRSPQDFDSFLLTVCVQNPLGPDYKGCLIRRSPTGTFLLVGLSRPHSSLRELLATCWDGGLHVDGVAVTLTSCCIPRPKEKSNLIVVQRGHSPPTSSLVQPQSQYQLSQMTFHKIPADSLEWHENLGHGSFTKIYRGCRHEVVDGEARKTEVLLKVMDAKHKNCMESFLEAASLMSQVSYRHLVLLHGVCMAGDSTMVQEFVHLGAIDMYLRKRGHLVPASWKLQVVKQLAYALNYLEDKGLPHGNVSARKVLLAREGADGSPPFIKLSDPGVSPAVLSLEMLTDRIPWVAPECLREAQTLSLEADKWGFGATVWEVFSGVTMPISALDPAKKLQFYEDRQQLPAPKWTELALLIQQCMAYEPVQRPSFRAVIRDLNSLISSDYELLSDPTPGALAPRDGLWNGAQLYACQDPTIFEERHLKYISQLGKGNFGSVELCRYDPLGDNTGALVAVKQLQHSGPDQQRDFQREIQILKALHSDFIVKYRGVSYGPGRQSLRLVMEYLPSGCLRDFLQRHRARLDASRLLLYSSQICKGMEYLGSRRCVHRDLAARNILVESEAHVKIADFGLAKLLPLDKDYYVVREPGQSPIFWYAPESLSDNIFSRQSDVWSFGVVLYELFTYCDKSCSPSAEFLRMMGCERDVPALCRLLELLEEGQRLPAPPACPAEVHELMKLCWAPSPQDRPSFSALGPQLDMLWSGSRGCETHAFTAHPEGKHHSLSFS
Sequence of Aurora kinase A (O14965 whole entry): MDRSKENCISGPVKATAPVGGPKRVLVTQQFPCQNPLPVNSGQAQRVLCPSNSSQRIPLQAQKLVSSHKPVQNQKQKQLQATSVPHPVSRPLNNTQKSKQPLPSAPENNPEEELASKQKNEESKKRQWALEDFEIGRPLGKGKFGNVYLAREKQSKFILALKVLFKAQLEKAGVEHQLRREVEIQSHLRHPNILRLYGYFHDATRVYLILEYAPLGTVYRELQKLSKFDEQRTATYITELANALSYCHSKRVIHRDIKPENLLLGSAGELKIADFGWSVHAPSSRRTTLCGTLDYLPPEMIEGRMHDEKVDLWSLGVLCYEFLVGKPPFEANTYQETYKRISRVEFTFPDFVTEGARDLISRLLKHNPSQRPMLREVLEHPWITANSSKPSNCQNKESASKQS

- Ki [1]: > 2.51 µM (inactive)
- Ki [2]: > 3.16 µM (inactive)
- Ki [3]: > 2.51 µM (inactive)
- Ki [4]: > 3.98 µM (inactive)
- Ki [5]: > 6.31 µM (inactive)
- Ki [6]: > 5.01 µM (inactive)
- Ki [7]: > 6.31 µM (inactive)
- Ki [8]: > 2.51 µM (inactive)
- Ki [9]: > 3.16 µM (inactive)
- Ki [10]: 316 nM (active)
- Ki [11]: > 3.98 µM (inactive)
- Ki [12]: > 1.58 µM (inactive)
- Ki [13]: > 2.51 µM (inactive)
- Ki [14]: > 3.98 µM (inactive)
- Ki [15]: 251 nM (active)
- Ki [17]: > 6.31 µM (inactive)
- Ki [18]: > 3.98 µM (inactive)
- Ki [19]: > 7.94 µM (inactive)
Structure (SMILES): O=C(Nc1cc(-c2c[nH]c3ncccc23)cc(Cl)n1)c1ccccc1
- Ki [16]: > 3.98 µM (inactive)

Structure (SMILES): CCN1C(=Cc2sc3ccccc3[n+]2C)C=Cc2cccc(C)c21
- EC50 [20]: 4.08 µM (active)
- EC50 [21]: 15.5 µM (inconclusive)

Structure (SMILES): O=C(N/N=C/c1c(O)ccc2ccccc12)c1[nH]ncc1Br
- IC50 [22]: 27.7 µM (active)

Structure (SMILES): O=C(Cc1ccccc1Cl)NC1(O)C(=O)c2ccccc2C1=O
- AC50 [23]: 8.16 µM (active)

Structure (SMILES): CNC[C@H](Cc1ccccc1)NC[C@@H](Cc1cccc2ccccc12)NCCc1ccc(C)cc1
- EC50 [20]: 4.79 µM (active)
- EC50 [21]: > 160 µM (inconclusive)

- IC50 [22]: 14.3 µM (active)
- AC50 [23]: 16.5 µM (active)
Structure (SMILES): Nc1nnc2c(n1)CCCC2

- Ki [1]: 0.0126 µM (active)
- Ki [2]: > 3.98 µM (inactive)
- Ki [3]: > 2.51 µM (inactive)
- Ki [4]: > 3.98 µM (inactive)
- Ki [5]: 0.316 µM (active)
- Ki [6]: > 5.01 µM (inactive)
- Ki [7]: > 6.31 µM (inactive)
- Ki [8]: > 2.51 µM (inactive)
- Ki [9]: > 3.16 µM (inactive)
- Ki [10]: > 2510 nM (inactive)
- Ki [11]: 0.251 µM (active)
- Ki [12]: > 1.58 µM (inactive)
- Ki [13]: > 2.51 µM (inactive)
- Ki [14]: > 3.98 µM (inactive)
- Ki [15]: > 2000 nM (inactive)
- Ki [17]: > 6.31 µM (inactive)
- Ki [18]: > 3.98 µM (inactive)
- Ki [19]: > 3.98 µM (inactive)
Structure (SMILES): Nc1c(-c2ccc(NC(=O)Nc3cccc(C(F)(F)F)c3)cc2)cnc2c(-c3ccc4c(c3)OCO4)cnn12
- Ki [16]: > 5.01 µM (inactive)
